From PubChem BioAssay AID489032 (Sanford-Burnham Center for Chemical Genomics, 2010)
Activity calls are given as the source filed them. The rule behind the calls is not given here.

Test system: UPR adaptive arm reporter cells, luciferase luminescence
Assay: adaptive unfolded protein response reporter activation – cell-based, luciferase luminescence, dose response (AID 489032)

SMILES | EC50
O=C(C[n+]1ccc(-c2cc(C(=O)Nc3cccc(C(F)(F)F)c3)c3ccccc3n2)cc1)c1cccc([N+](=O)[O-])c1 | > 80 µM (inactive)
Cc1cc(NC(=O)c2cncc(Br)c2)ccc1NC(=O)c1cc2ccccc2o1 | > 80 µM (inactive)
O=C(COC(=O)/C=C/c1cn(-c2ccccc2)nc1-c1cccnc1)Nc1ccc(Cl)cc1Cl | > 80 µM (inactive)
Cc1cc(NC(=O)/C(C#N)=C/c2ccc(-c3ccc(SC(F)F)cc3)o2)n(-c2ccccc2)n1 | > 80 µM (inactive)
CC1(C)C[C@H](O)[C@]2(CO)[C@H](O)C[C@]3(C)C(=CCC4[C@@]5(C)CC[C@H](O)C(C)(C)C5CC[C@]43C)[C@@H]2C1 (stereo partly specified) | 18.1 µM
Cc1cc(C)nc(SCc2ccc(C(=O)N/N=C/c3cccc(O)c3O)cc2)n1 | > 80 µM (inactive)
O=C(/C=C/c1cc([N+](=O)[O-])ccc1OC(F)F)Nc1cccc([N+](=O)[O-])c1 | > 80 µM (inactive)
Cc1cc(C)c2c(c1)/C(=N/Nc1ccc(S(N)(=O)=O)cc1[N+](=O)[O-])CCC2 | > 80 µM (inactive)
CC1CN(S(=O)(=O)c2ccc(C(=O)Nc3nc(-c4cc5ccccc5o4)cs3)cc2)CC(C)O1 (stereo unspecified) | > 80 µM (inactive)
O=C(Nc1ccc(O)c(-c2nc3ccccc3s2)c1)c1cc(=O)c2ccccc2o1 | > 80 µM (inactive)
NC(=S)N/N=C/c1ccc(C23CC4CC(CC(C4)C2)C3)cc1 | 40 µM (inactive)
Cc1ccc(Nc2nc3ccc(Cl)cc3n3cnnc23)cc1F | > 80 µM (inactive)
C=CCOc1ccc2cccc(/C=N/NC(=O)c3cc4cc([N+](=O)[O-])ccc4s3)c2c1 | 43.5 µM (inactive)
COc1ccc(Br)cc1-c1nc2c(c(=O)[nH]c(=O)n2Cc2ccccc2)n1C | 63.1 µM (inactive)
Cc1nc2ccccc2n1-c1nc(-c2ccco2)cc(C(F)(F)F)n1 | > 80 µM (inactive)
Cc1ccc2nc(Nc3nc(-c4ccccc4)cc(=O)[nH]3)nc(C)c2c1 | 19.3 µM
O=C(O)c1ccc(N2C(=O)/C(=C/c3ccc(-c4ccc([N+](=O)[O-])cc4)o3)C=C2c2ccccc2)cc1 | > 80 µM (inactive)
Cc1ccc(N=Cc2c(O)n(-c3ccc4c(c3)OCO4)c(=O)c3ccccc23)cc1 | > 80 µM (inactive)

SMILES | EC50
COc1cc(NC(=O)c2cccs2)ccc1NC(=O)c1cc2ccccc2o1 | > 80 µM (inactive)
CCN(CC)S(=O)(=O)c1ccc2c(c1)C(=NO)c1cc(S(=O)(=O)N(CC)CC)ccc1-2 | 18.6 µM
O=c1[nH]c(CSc2ncnc3sc(-c4ccccc4)cc23)nc2ccccc12 | > 80 µM (inactive)
CCOC(=S)SCC(=O)Nc1nc(-c2ccc(Br)cc2)cs1 | > 80 µM (inactive)
CN(C)CC/C=C1\c2ccc(F)cc2Sc2cc(F)c(Cl)cc21 | 15.8 µM
CCOC(=O)c1nnc(-c2ccc(C)cc2)nc1Oc1ccccc1Cl | > 80 µM (inactive)
CCOc1cc(/C=N/NC(N)=S)cc(Br)c1OCc1ccccc1C | > 80 µM (inactive)
CC(C)c1cccc(-c2ccc3c(c2)S(=O)(=O)c2cccc(C(=O)NCc4ccccc4Cl)c2C3=O)c1 | 38.4 µM (inactive)
Nc1cccc(-c2nc3cc(S(=O)(=O)c4ccc5oc(-c6cccc(N)c6)nc5c4)ccc3o2)c1 | 24.1 µM (inactive)
COC(=O)c1c(C)oc2ccc(N(C(=O)Oc3ccccc3)S(=O)(=O)c3ccc(Cl)c([N+](=O)[O-])c3)cc12 | 20.1 µM (inactive)
COc1ccccc1C(=O)NC(=S)NNC(=O)c1sc2ccccc2c1Cl | > 80 µM (inactive)
COc1cc(/C=C2/C(=N)N3C=CSC3=NC2=O)ccc1OCCCOc1cc(C)ccc1C | > 80 µM (inactive)
Cc1cccc(NC(=O)CSc2nc(C)c(CC(=O)c3ccc(Br)cc3)c(C)c2C#N)c1C | > 80 µM (inactive)
Cn1c(-c2ccccc2)c(/C=N/NC(=O)c2ccc(O)cc2)c2ccccc21 | > 80 µM (inactive)
CCOC(=O)C1=C(C)n2c(s/c(=C/c3cccc([N+](=O)[O-])c3)c2=O)=NC1c1ccc(O)c(OC)c1 (stereo unspecified) | > 80 µM (inactive)
Cc1nn(Cc2c(Cl)cccc2Cl)c(C)c1NC(=O)c1cn(-c2ccccc2)nc1-c1ccccc1 | > 80 µM (inactive)
CCOC(=O)c1nnc(-c2ccc(C)cc2)nc1Oc1ccc(Cl)cc1Cl | 40 µM (inactive)
O=C(COc1ccc(/C=N/NC(=O)c2cc3ccccc3o2)cc1Br)Nc1ccccc1 | > 80 µM (inactive)

Further lines, results first:

EC50 | SMILES
> 80 µM (inactive) | CC1CCCCC1N1CN=C(Nc2nc3ccccc3s2)NC1 (stereo unspecified)
> 80 µM (inactive) | COc1ccc(C(=O)/C=C/c2cccs2)c(OC(=O)c2cccc([N+](=O)[O-])c2)c1
> 80 µM (inactive) | CCOC(=O)c1cc(-c2ccccc2)sc1NC(=O)c1ccc(OC)cc1
> 80 µM (inactive) | COc1cc(-c2noc(C)c2/C=C/c2ccc(OC(C)=O)cc2)cc(OC)c1OC
> 80 µM (inactive) | N#Cc1cnn2c1nc(N1CCCCC1)c1ccccc12
15.6 µM | CCOc1ccc2nc(NC3=NC(c4ccc(OC)cc4)CC(=O)N3)nc(C)c2c1 (stereo unspecified)
11.9 µM | COc1ccc(-c2nn(-c3ccccc3)cc2/C=C/C(=O)OCC(=O)Nc2cccc(C#N)c2)cc1
28.9 µM (inactive) | c1cc(SC2CCCCC2)cc(-c2nc3cnccn3c2NC2CCCCC2)c1
> 80 µM (inactive) | CN1Cc2c(N3CCOCC3)nc3sc(C(=O)c4ccc(Br)cc4)c(N)c3c2CC1(C)C
> 80 µM (inactive) | CCCCN(CC)S(=O)(=O)c1ccc(C(=O)N(CCCN(C)C)c2nc3cc(C)cc(C)c3s2)cc1
> 80 µM (inactive) | CC(C)Cn1c2c(c(=O)[nH]c1=O)C(C(F)(F)F)(C(F)(F)F)N=C(CCC1CCCCC1)N2
> 80 µM (inactive) | CCOC(=O)c1c(-c2ccc(C)o2)csc1NC(=O)COC(=O)c1ccc(NC(N)=O)cc1
> 80 µM (inactive) | OCCCn1c(C2CCCN2c2nc(-c3ccc(Cl)cc3)cs2)nc2cc(Cl)c(N3CCCCC3)cc21 (stereo unspecified)
> 80 µM (inactive) | CCc1ccc(-c2nc(CN3CCC(C(=O)NCCN(CC)c4ccccc4)CC3)c(C)o2)cc1
> 80 µM (inactive) | COc1ccc2[nH]c3c(c2c1)CCN1C(=O)C(CC(=O)NC/C=C(\C)CCC=C(C)C)C[C@H](C(=O)N2CCOCC2)[C@@]31CCC1CCCC1 (stereo partly specified)
> 80 µM (inactive) | CCCCCCCCCCOC(=O)Cn1c(COc2ccc(OC)cc2)[n+](C)c2ccccc21
> 80 µM (inactive) | Cc1cccn2c(=O)c3cc(C(=O)NC4CCCCCC4)sc3nc12
5.4 µM | CCCCN(CC)S(=O)(=O)c1ccc(C(=O)N=c2sc3cc(NC(C)=O)ccc3n2C)cc1
> 80 µM (inactive) | CCCCCCCCCCOC(=O)Cn1c(COc2ccc(C)cc2)[n+](C)c2ccccc21
> 80 µM (inactive) | CC1CCN(Cc2c(C(=O)N/N=C/c3ccc(C(F)(F)F)cc3)nnn2-c2nonc2N)CC1
> 80 µM (inactive) | COc1ccc2cc1Oc1ccc(cc1)CC1c3c(cc(OC)c4c3Oc3cc5c(cc3O4)CCNC5C2)CCN1C (stereo unspecified)
> 80 µM (inactive) | CCc1ccc(-n2c(SCC(=O)c3ccc4c(c3)NC(=O)CO4)nc3ccccc3c2=O)cc1
> 80 µM (inactive) | CCc1sc2nc(SCC(=O)Nc3cc(C)on3)n(-c3cccc(OC)c3)c(=O)c2c1C
> 80 µM (inactive) | O=C(NC1CCCCC1)c1cccc2c1C(=O)c1ccc(-c3ccc(OC(F)(F)F)cc3)cc1S2(=O)=O
> 80 µM (inactive) | CCCNC(=O)c1ccc2c(=O)c(O)c(-c3ccc(OC)cc3)[nH]c2c1
